Experimental findings from ChEMBL document CHEMBL1201862, “PubChem BioAssay data set” (2004) are described below.

The structures appear in SMILES notation.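 All cell lines were grown in 96-well plates and treated with compound for 48 hours. GI50 marks 50% less growth.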 The source made the active and inactive calls. Cut-off read from the data, not from the text of the source: active = GI50 up to about 1.1 µM and inactive = higher.

Among the test systems are EKVX; HCT-15; HL-60; Hs-578T; IGROV-1; K562; KM12; M14; MOLT-4; NCI-H23; OVCAR-3; OVCAR-4; SF-268; SK-MEL-28; SK-MEL-2; SK-OV-3; SW-620; T47D; U-251; UACC-257.
Assay in all cases: NCI-60 cell line screen, 48 h

In the case of `CSC1=NN(C(C)=O)C(C(OC(C)=O)C(OC(C)=O)C(OC(C)=O)C(COC(C)=O)OC(C)=O)S1` (stereo not given), the GI50 was > 100 µM (inactive) in the assay on EKVX; above 100 µM with HCT-15; > 100 µM (inactive) with HL-60; > 100 µM (inactive) in the assay on Hs-578T; > 100 µM (inactive) in the assay on IGROV-1; > 100 µM (inactive) with K562. Besides, the GI50 in the assay with KM12, in the assay on M14, with MOLT-4, with NCI-H23, in the assay with OVCAR-3 and with OVCAR-4 was > 100 µM (inactive) in each case. For the same molecule, the GI50 in the assay on SF-268, in the assay on SK-MEL-28, in the assay on SK-MEL-2, in the assay on SK-OV-3, in the assay on SW-620 and in the assay on T47D was > 100 µM (inactive) each time. The GI50 with U-251 and with UACC-257 was > 100 µM (inactive) in each case.

Regarding `COc1ccc2[nH]c3c(C)c4cnccc4c(C)c3c2c1`, the GI50 with EKVX was 1.87 µM (inactive); in the assay with HCT-15, 1.61 µM; with HL-60 it was 2.28 µM (inactive); with Hs-578T, 5.55 µM (inactive); in the assay on IGROV-1, 3.85 µM (inactive); with K562, 2.4 µM (inactive). Besides, the GI50 with KM12 is 1.31 µM (inactive); with M14 it was 1.26 µM (inactive); in the assay with MOLT-4, 0.571 µM (active); with NCI-H23, 6.25 µM (inactive); in the assay on OVCAR-3 it was 1.14 µM (inactive); in the assay on OVCAR-4, 1.94 µM (inactive). Besides, the GI50 in the assay on SF-268 is 2.75 µM (inactive); with SK-MEL-28 it was 1.94 µM (inactive); with SK-MEL-2 it was 5.14 µM (inactive); in the assay on SK-OV-3, > 10 µM (inactive); in the assay on SW-620, 0.964 µM (active); in the assay with T47D, > 10 µM (inactive). Besides, the GI50 with U-251 is 1.72 µM (inactive); in the assay on UACC-257, 4.07 µM (inactive).

On to `O=C(c1c(F)c(F)c(F)c(F)c1F)n1c(O)nc2ccccc21`, for which the GI50 with EKVX was 13.9 µM (inactive); with HCT-15, 5.06 µM; in the assay on HL-60, 2.42 µM (inactive); with Hs-578T it was 17.2 µM (inactive); in the assay with IGROV-1, 11.4 µM (inactive); with K562 it was 3.51 µM (inactive). Besides, the GI50 in the assay on KM12 is 1.54 µM (inactive); in the assay with M14, 9.33 µM (inactive); in the assay with MOLT-4, 4.47 µM (inactive); with NCI-H23, 4.88 µM (inactive); in the assay with OVCAR-3, 9.77 µM (inactive); in the assay with OVCAR-4 it was 13.3 µM (inactive). The GI50 in the assay with SF-268 was 14.7 µM (inactive); in the assay on SK-MEL-28, 15 µM (inactive); in the assay on SK-MEL-2, 4.2 µM (inactive); with SK-OV-3, 15.4 µM (inactive); in the assay with SW-620, 4.91 µM (inactive); in the assay with T47D it was 3.94 µM (inactive). In addition, the GI50 in the assay on U-251 is 12.5 µM (inactive); in the assay on UACC-257, 5.69 µM (inactive).

Take `CO/C(=N\N=C\c1cccc(C(F)(F)F)c1)c1ccncc1`: the GI50 is 13.8 µM (inactive) with EKVX; 2.45 µM in the assay with HCT-15; 2.83 µM (inactive) with HL-60; 5.93 µM (inactive) with Hs-578T; 10 µM (inactive) with IGROV-1; 3.94 µM (inactive) with K562. Moreover, the GI50 was 5.19 µM (inactive) in the assay with KM12; 6.3 µM (inactive) in the assay with M14; 5.21 µM (inactive) in the assay with MOLT-4; 12 µM (inactive) with NCI-H23; 10.7 µM (inactive) in the assay on OVCAR-3; 41 µM (inactive) with OVCAR-4. Further, the GI50 is 8.05 µM (inactive) in the assay with SF-268; 24.3 µM (inactive) in the assay on SK-MEL-28; 2.89 µM (inactive) in the assay with SK-MEL-2; 6.89 µM (inactive) in the assay with SK-OV-3; 4.6 µM (inactive) in the assay on SW-620; 37.2 µM (inactive) in the assay on T47D. In addition, the GI50 in the assay on U-251 was 5.14 µM (inactive); in the assay on UACC-257 it was 14 µM (inactive).

Regarding `C[C@@H]1C[C@H]2CC[C@H](O2)[C@H](C)C(=O)O[C@@H](C)C[C@@H]2CC[C@@H](O2)[C@@H](C)C(=O)O[C@H](C)C[C@H]2CC[C@H](O2)[C@H](C)C(=O)O[C@@H](C)C[C@@H]2CC[C@@H](O2)[C@@H](C)C(=O)O1`, the GI50 in the assay with EKVX is 0.283 µM (active); in the assay with HCT-15, 0.646 µM; in the assay on HL-60, 0.157 µM (active); in the assay on Hs-578T it was 0.489 µM (active); with IGROV-1 it was 0.34 µM (active); in the assay on K562, 0.228 µM (active). Also, the GI50 in the assay on KM12 was 0.256 µM (active); in the assay on M14 it was 0.434 µM (active); with MOLT-4, 0.36 µM (active); in the assay with NCI-H23, 0.224 µM (active); with OVCAR-3, 0.073 µM (active); with OVCAR-4, 0.136 µM (active). Also, the GI50 is 0.316 µM (active) in the assay on SF-268; 1.96 µM (inactive) in the assay on SK-MEL-28; 0.245 µM (active) in the assay on SK-MEL-2; 0.2 µM (active) with SK-OV-3; 0.349 µM (active) with SW-620; 0.189 µM (active) in the assay with T47D. The GI50 was 0.366 µM (active) in the assay with U-251 and 0.242 µM (active) with UACC-257.

Regarding `OC1(c2ccc(Cl)cc2)c2c(c3ccccc3c3ccccc23)C2=NCCN21` (stereo not given), the GI50 in the assay on EKVX was 13.6 µM (inactive); in the assay on HCT-15, 24.3 µM; with HL-60, > 100 µM (inactive); in the assay with Hs-578T, 4.58 µM (inactive); in the assay on IGROV-1, 3.96 µM (inactive); in the assay with K562 it was 37.3 µM (inactive). The GI50 in the assay with KM12 was 16.7 µM (inactive); in the assay on M14, 11.4 µM (inactive); in the assay with MOLT-4, 10.8 µM (inactive); in the assay on NCI-H23, 11.6 µM (inactive); in the assay on OVCAR-3, 23.8 µM (inactive); in the assay with OVCAR-4, 3.43 µM (inactive). Besides, the GI50 in the assay on SF-268 was 10.6 µM (inactive); in the assay on SK-MEL-28, 18.3 µM (inactive); in the assay on SK-MEL-2, 18.7 µM (inactive); in the assay with SK-OV-3 it was 16.4 µM (inactive); in the assay on SW-620 it was 12.6 µM (inactive); in the assay on T47D, 15.4 µM (inactive). Besides, the GI50 with U-251 is 12.8 µM (inactive); in the assay on UACC-257 it was 20.4 µM (inactive).

For `C[C@H](CCc1nc(C#N)c(N)o1)[C@H]1CC[C@H]2[C@@H]3CCC4C[C@@H](O)CC[C@]4(C)[C@H]3C[C@@H](O)[C@]12C` (stereo not given in full), the GI50 with EKVX is 12.9 µM (inactive); in the assay with HCT-15, 14.7 µM; in the assay with HL-60, 0.475 µM (active); in the assay on Hs-578T, 8.55 µM (inactive); with IGROV-1, 6.24 µM (inactive); with K562, 4.46 µM (inactive). Besides, the GI50 in the assay on KM12 is 10.7 µM (inactive); with M14, 15.4 µM (inactive); in the assay on MOLT-4, 4.02 µM (inactive); with NCI-H23 it was 17.3 µM (inactive); in the assay with OVCAR-3 it was 11.9 µM (inactive); with OVCAR-4, 1.03 µM (active). Also, the GI50 in the assay on SF-268 is 11.3 µM (inactive); in the assay with SK-MEL-28 it was 13.1 µM (inactive); in the assay with SK-MEL-2 it was 16.3 µM (inactive); in the assay on SK-OV-3 it was 14.3 µM (inactive); with SW-620 it was 12.6 µM (inactive); in the assay on T47D it was 14.5 µM (inactive). The values for the GI50 in the assay with U-251 and with UACC-257 were 12.5 µM (inactive) and 7.73 µM (inactive), respectively.
